Assay results: US8383094B2, “Hepatitis C virus inhibitors” (Bristol-Myers Squibb Company, priority 2008, dated 2013)
Like-named read-outs stand apart in the source and are kept apart here.

Tested on: HCV 1b genotype
Experiment: HCV Replicon assay (HCV-neo replicon cells, wild-type)
Assay type: cell-based
[1] = HCV 1b genotype replicon, range class A-D, read-out: 1b EC50 (in μM or range)
[2] = Hepatitis C virus, HCV 1b genotype replicon, range class A-D, read-out: 1b EC50 (in μM or range)
[3] = Hepatitis C virus, HCV 1b genotype replicon, read-out: 1b EC50 (in μM or range)

Row | Structure (SMILES) | EC50 [2] | further results
1 | C=Cc1cccnc1C(=O)N1CCC[C@H]1C(=O)Nc1ccc(C#Cc2ccc(NC(=O)[C@@H]3CCCN3C(=O)c3ncccc3C=C)cc2)cc1 [Example D36.3, (2S,2′S)-N,N′-(4,4′-(ethyne-1,2-diyl)bis(4,1-phenylene))bis(1-(3-vinylpicolinoyl)pyrrolidine-2-carboxamide)] | – | EC50 [1]: 0.1 to 0.999 µM
2 | CN1CCN(C(C(=O)N2CCC[C@H]2C(=O)Nc2ccc(C#Cc3ccc(NC(=O)[C@@H]4CCCN4C(=O)C(c4ccccc4)N4CCN(C)CC4)cc3)cc2)c2ccccc2)CC1 (stereo partly drawn) [VA44, (2S,2′S)-N,N′-(1,2-ethynediyldi-4,1-phenylene)bis(1-((4-methyl-1-piperazinyl)(phenyl)acetyl)-2-pyrrolidinecarboxamide)] | – | EC50 (Hepatitis C virus, read-out: 1b EC50 (in μM or range), HCV 1b genotype replicon, range class A-D): < 0.00457 µM
3 | CC(C)OC(=O)N[C@@H](C(=O)N1CCC[C@H]1C(=O)Nc1ccc(C#Cc2ccc(NC(=O)[C@@H]3CCCN3C(=O)[C@H](NC(=O)OC(C)C)c3ccccc3)cc2)cc1)c1ccccc1 [VN57, Diisopropyl (1,2-ethynediylbis(4,1-phenylenecarbamoyl(2S)-2,1-pyrrolidinediyl((1R)-2-oxo-1-phenyl-2,1-ethanediyl)))biscarbamate] | – | EC50 [1]: < 0.00457 µM
4 | O=C(Nc1ccc(C#Cc2ccc(NC(=O)[C@@H]3CCCN3C(=O)c3nc(Cl)cc4ccccc34)cc2)cc1)[C@@H]1CCCN1C(=O)CC1CC1 [Example D38, (2S)-1-((3-Chloro-1-isoquinolinyl)carbonyl)-N-(4-((4-((((2S)-1-(cyclopropylacetyl)-2-pyrrolidinyl)carbonyl)amino)phenyl)ethynyl)phenyl)-2-pyrrolidinecarboxamide] | 0.00457 to 0.099 µM | –
5 | CCc1sc(Cl)nc1C(=O)N1CCC[C@H]1C(=O)Nc1ccc(C#Cc2ccc(NC(=O)[C@@H]3CCCN3C(=O)c3nc(Cl)sc3CC)cc2)cc1 [Example D36.1, (2S,2′S)-N,N′-(4,4′-(ethyne-1,2-diyl)bis(4,1-phenylene))bis(1-(2-chloro-5-ethylthiazole-4-carbonyl)pyrrolidine-2-carboxamide)] | – | EC50 [1]: 0.1 to 0.999 µM
6 | CC(=O)N1CCC[C@H]1C(=O)Nc1ccc(C#Cc2ccc(NC(=O)[C@@H]3CCCN3C(=O)c3cccc4cccnc34)nc2)cc1 [Example D58, (2S)-1-Acetyl-N-(4-((6-((((2S)-1-(8-quinolinylcarbonyl)-2-pyrrolidinyl)carbonyl)amino)-3-pyridinyl)ethynyl)phenyl)-2-pyrrolidinecarboxamide] | – | EC50 [3]: > 10 µM
7 | O=C(Nc1ccc(C#Cc2ccc(NC(=O)C3CC3)cc2)cc1)C1CC1 [Example D3, N,N′-(4,4′-(Ethyne-1,2-diyl)bis(4,1-phenylene))dicyclopropanecarboxamide] | 0.00457 to 0.099 µM | –
8 | O=C(Nc1ccc(C#Cc2ccc(NC(=O)[C@@H]3CCCN3C(=O)[C@@H](c3ccccc3)N3CCCC3)cc2)cc1)[C@@H]1CCCN1C(=O)[C@@H](c1ccccc1)N1CCCC1 [VN12, (2S,2′S)-N,N′-(1,2-ethynediyldi-4,1-phenylene)bis(1-((2R)-2-phenyl-2-(1-pyrrolidinyl)acetyl)-2-pyrrolidinecarboxamide)] | < 0.00457 µM | –
9 | CN(C)C1(C(=O)N2CCC[C@H]2C(=O)Nc2ccc(C#Cc3ccc(NC(=O)[C@@H]4CCCN4C(=O)C4(N(C)C)CCc5ccccc54)cc3)cc2)CCc2ccccc21 (stereo partly drawn) [VN41, (2S,2′S)-N,N′-(1,2-ethynediyldi-4,1-phenylene)bis(1-((1-(dimethylamino)-2,3-dihydro-1H-inden-1-yl)carbonyl)-2-pyrrolidinecarboxamide)] | < 0.00457 µM | –
10 | O=C(Nc1ccc(C#Cc2ccc(NC(=O)[C@@H]3CCCN3C(=O)[C@H]3CCCO3)cc2)cc1)[C@@H]1CCCN1C(=O)[C@H]1CCCO1 [Example D26, (2S,2′S)-N,N′-(1,2-ethynediyldi-4,1-phenylene)bis(1-((2R)-tetrahydro-2-furanylcarbonyl)-2-pyrrolidinecarboxamide)] | 0.00457 to 0.099 µM | –
11 | O=C(Nc1ccc(C#Cc2ccc(NC(=O)[C@@H]3CCCN3C(=O)[C@H]3CCCO3)cc2)cc1)C1CCC1 [Example D24, N-(4-((4-((cyclobutylcarbonyl)amino)phenyl)ethynyl)phenyl)-1-((2R)-tetrahydro-2-furanylcarbonyl)-L-prolinamide] | 1 to 10 µM | –
12 | O=C(CC1CC1)Nc1ccc(C#Cc2ccc(NC(=O)[C@@H]3CCCN3C(=O)Cc3ccccc3)cc2)cc1 [Example D16, N-(4-((4-((cyclopropylacetyl)amino)phenyl)ethynyl)phenyl)-1-(phenylacetyl)-L-prolinamide] | 0.1 to 0.999 µM | –
13 | O=C(Nc1ccc(C#Cc2ccc(NC(=O)[C@@H]3CCCN3C(=O)OCc3ccccc3)cc2)cc1)[C@@H]1CCCN1C(=O)OCc1ccccc1 [Example D1, Dibenzyl(2S,2′S)-2,2′-(1,2-ethynediylbis(4,1-phenylenecarbamoyl))di(1-pyrrolidinecarboxylate)] | 0.00457 to 0.099 µM | –
14 | CN(C)c1ccc(C#Cc2ccc(NC(=O)[C@@H]3CCCN3C(=O)[C@@H](c3ccccc3)N(C)C)cc2)cc1 [Example D60, (S)-1-((R)-2-(dimethylamino)-2-phenylacetyl)-N-(4-((4-(dimethylamino)phenyl)ethynyl)phenyl)pyrrolidine-2-carboxamide] | 0.1 to 0.999 µM | –
15 | O=C(Nc1ccc(C#Cc2ccc(NC(=O)[C@@H]3CCCN3C(=O)Cc3ccccc3)cc2)cc1)C1CC1 [Example D15, N-(4-((4-((cyclopropylcarbonyl)amino)phenyl)ethynyl)phenyl)-1-(phenylacetyl)-L-prolinamide] | 0.1 to 0.999 µM | –
16 | CC[C@@H](C(=O)N1CCC[C@H]1C(=O)Nc1ccc(C#Cc2ccc(NC(=O)[C@@H]3CCCN3C(=O)[C@H](CC)c3ccccc3)cc2)cc1)c1ccccc1 [VN7, (2S,2′S)-N,N′-(1,2-ethynediyldi-4,1-phenylene)bis(1-((2R)-2-phenylbutanoyl)-2-pyrrolidinecarboxamide)] | < 0.00457 µM | –
17 | O=C(CC1CC1)Nc1ccc(C#Cc2ccc(NC(=O)[C@@H]3CCCN3C(=O)[C@H]3CCCO3)cc2)cc1 [Example D23, N-(4-((4-((cyclopropylacetyl)amino)phenyl)ethynyl)phenyl)-1-((2R)-tetrahydro-2-furanylcarbonyl)-L-prolinamide] | – | EC50 [3]: 2.6 µM
18 | CN(C)[C@@H](Cc1ccccc1)C(=O)N1CCC[C@H]1C(=O)Nc1ccc(C#Cc2ccc(NC(=O)[C@@H]3CCCN3C(=O)[C@H](Cc3ccccc3)N(C)C)cc2)cc1 [VN29, (2S,2′S)-N,N′-(1,2-ethynediyldi-4,1-phenylene)bis(1-((2S)-2-(dimethylamino)-3-phenylpropanoyl)-2-pyrrolidinecarboxamide)] | 0.1 to 0.999 µM | –
19 | O=C(Nc1ccc(C#Cc2ccc(NC(=O)[C@@H]3CCCN3C(=O)c3nc(Cl)cc4ccccc34)cc2)cc1)[C@@H]1CCCN1C(=O)Cc1cccnc1 [Example D40, (2S)-1-((3-Chloro-1-isoquinolinyl)carbonyl)-N-(4-((4-((((2S)-1-(3-pyridinylacetyl)-2-pyrrolidinyl)carbonyl)amino)phenyl)ethynyl)phenyl)-2-pyrrolidinecarboxamide] | 0.00457 to 0.099 µM | –
20 | O=C(Nc1ccc(C#Cc2ccc(NC(=O)[C@@H]3CCCN3C(=O)Cc3cccnc3)cc2)cc1)[C@@H]1CCCN1C(=O)Cc1cccnc1 [Example D39, (2S,2′S)-N,N′-(1,2-ethynediyldi-4,1-phenylene)bis(1-(3-pyridinylacetyl)-2-pyrrolidinecarboxamide)] | < 0.00457 µM | –
21 | CCc1cccnc1C(=O)N1CCC[C@H]1C(=O)Nc1ccc(C#Cc2ccc(NC(=O)[C@@H]3CCCN3C(=O)c3ncccc3CC)cc2)cc1 [Example D36.4, (2S,2′S)-N,N′-(4,4′-(ethyne-1,2-diyl)bis(4,1-phenylene))bis(1-(3-ethylpicolinoyl)pyrrolidine-2-carboxamide)] | – | EC50 [1]: 0.00457 to 0.099 µM
22 | CCN(C)C(C(=O)N1CCC[C@H]1C(=O)Nc1ccc(C#Cc2ccc(NC(=O)[C@@H]3CCCN3C(=O)C(c3ccccc3)N(C)CC)cc2)cc1)c1ccccc1 (stereo partly drawn) [VN47, (2S,2′S)-N,N′-(1,2-ethynediyldi-4,1-phenylene)bis(1-((ethyl(methyl)amino)(phenyl)acetyl)-2-pyrrolidinecarboxamide)] | 0.00457 to 0.099 µM | –
23 | CNC(C(=O)N1CCC[C@H]1C(=O)Nc1ccc(C#Cc2ccc(NC(=O)[C@@H]3CCCN3C(=O)C(NC)c3ccccc3)cc2)cc1)c1ccccc1 (stereo partly drawn) [VN30, (2S,2′S)-N,N′-(1,2-ethynediyldi-4,1-phenylene)bis(1-((methylamino)(phenyl)acetyl)-2-pyrrolidinecarboxamide)] | < 0.00457 µM | –
